In one data set the target is human LSD1 (Homo sapiens (Human), UniProt O60341). The experiment in a line: Experiment 1B: in vitro LSD1 enzyme activity, enzyme-coupled fluorescence (HRP/Amplex Red), H3(1-21)K4me2 peptide 10 μM (Reaction Biology). The conditions noted are these: histone H3(1-21)K4me2 peptide 10 μM. The format is biochemical. The essentials:
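Human LSD1 with 10 μM histone H3(1-21)K4me2 peptide; enzyme and substrate incubated 30 min before compound addition started the reaction. H2O2 detected via HRP/Amplex Red fluorescence (Ex/Em 535/590). IC50 from 10-point 3-fold dilutions starting at 10 μM.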

Data set [1] in a line: Experiment 3: pharmacokinetic evaluation in CD-1 mice (IV and oral). The format is in vivo. The conditions noted are these: mouse, plasma, male CD-1 mice; for clearance / half-life / Vd: IV 1 mg/kg; for clearance: read-out: Clearance rate CL; for half-life: read-out: Half life T1/2 (IV, h) (converted); for Vd: read-out: Volume of distribution at steady state Vdss; for bioavailability: PO 2 mg/kg vs IV 1 mg/kg, read-out: Bioavailability F (%); for AUC(0-t): PO 2 mg/kg, read-out: Area under drug-time curve AUC0-last PO; for Cmax: single dose, oral 2 mg/kg, read-out: Peak concentration Cmax. The essentials: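 Male/female CD-1 mice aged 7-9 weeks, two per route, received single doses of 1 mg/kg IV or 2 mg/kg oral gavage in 10% DMSO/90% of 10% HP-β-cyclodextrin. Plasma was sampled from 0.083 (IV) or 0.25 (PO) to 24 h. Methanol-precipitated samples were measured by LC-MS/MS to derive Cmax, CL, T1/2, Vdss, AUC0-last and F.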

Data set [2] deals with hERG potassium ion channels (Homo sapiens (Human), UniProt Q12809). The experiment in a line: Experiment 4: hERG potassium ion channel inhibition, automated patch clamp (Qpatch), CHO-hERG cells. The format is cell-based. The conditions noted are these: highest test concentration 40 μM. As to the method:
Experiment 4: hERG Potassium Ion Channel Inhibition Assay
Experimental purpose: To test the effects of the test examples on hERG potassium ion channels using an automated patch clamp method.
4.1.1 CHO-hERG cells were cultured in a 175 cm^2 culture flask. When the cell density grew from 60% to 80%, the culture medium was removed. The cells were washed once with 7 mL of PBS (Phosphate Buffered Saline), and then 3 mL of Detachin cell dissociation reagent was added thereto for digestion.
4.1.2 After the digestion was completed, 7 mL of culture medium was added thereto for neutralization, then the mixture was centrifuged, the supernatant was aspirated, and then 5 mL of culture medium was added thereto for resuspension to ensure a cell density of 2×10^6/mL to 5×10^6/ML.
The single-cell high-resistance sealing and whole-cell modeling formation processes were all automatically completed by the Qpatch instrument of the Shanghai Institute of Materia Medica, Chinese Academy of Sciences. After obtaining the whole-cell recording modeling, the cells were clamped at −80 mV, and before a 5-second +40 mV depolarizing stimulus was given, a 50-millisecond −50 mV prepulse was first given, then the voltage was repolarized to −50 mV and holden for 5 seconds, and finally returned to −80 mV. This voltage stimulus was applied every 15 seconds, recorded for 2 minutes, and then the extracellular fluid was recorded for 5 minutes, and then the administration process was initiated, with compound concentrations starting at the lowest test concentration. The voltage stimulus was given for 2.5 minutes for each test concentration, and after all concentrations had been continuously given, 3 μM the positive control compound, Cisapride, was given. At least 3 cells were tested per concentration (n≥3).
4.4.1 The compound stock solution was diluted with DMSO, and 20 μL of DMSO solution was added with 10 μL of the compound stock solution, and serially diluted 3-fold to 6 DMSO concentrations.
4.4.2 4 μL of 6 DMSO concentrations of compounds were taken respectively and added to 396 μL of extracellular fluid, and the mixture was diluted 100-fold to 6 intermediate concentrations, then 80 μL of 6 intermediate concentrations of compounds was taken and added to 320 μL of extracellular fluid, and the mixture was diluted 5-fold to the final test concentration.
4.4.3 The highest test concentration was 40 μM, and the concentrations were respectively 40, 13.3, 4.4, 1.48, 0.494, and 0.165 μM for a total of six concentrations.
4.4.5 The preparation of the compound was completed by the Bravo instrument throughout the dilution process.
Experimental data were analyzed by GraphPad Prism 5.0 software.
On the technique in general: hERG is a cardiac potassium channel; its block is linked to QT prolongation.

Structures can show the parent of a compound that is named as a salt.

Sequence of hERG potassium ion channels (Q12809 whole entry): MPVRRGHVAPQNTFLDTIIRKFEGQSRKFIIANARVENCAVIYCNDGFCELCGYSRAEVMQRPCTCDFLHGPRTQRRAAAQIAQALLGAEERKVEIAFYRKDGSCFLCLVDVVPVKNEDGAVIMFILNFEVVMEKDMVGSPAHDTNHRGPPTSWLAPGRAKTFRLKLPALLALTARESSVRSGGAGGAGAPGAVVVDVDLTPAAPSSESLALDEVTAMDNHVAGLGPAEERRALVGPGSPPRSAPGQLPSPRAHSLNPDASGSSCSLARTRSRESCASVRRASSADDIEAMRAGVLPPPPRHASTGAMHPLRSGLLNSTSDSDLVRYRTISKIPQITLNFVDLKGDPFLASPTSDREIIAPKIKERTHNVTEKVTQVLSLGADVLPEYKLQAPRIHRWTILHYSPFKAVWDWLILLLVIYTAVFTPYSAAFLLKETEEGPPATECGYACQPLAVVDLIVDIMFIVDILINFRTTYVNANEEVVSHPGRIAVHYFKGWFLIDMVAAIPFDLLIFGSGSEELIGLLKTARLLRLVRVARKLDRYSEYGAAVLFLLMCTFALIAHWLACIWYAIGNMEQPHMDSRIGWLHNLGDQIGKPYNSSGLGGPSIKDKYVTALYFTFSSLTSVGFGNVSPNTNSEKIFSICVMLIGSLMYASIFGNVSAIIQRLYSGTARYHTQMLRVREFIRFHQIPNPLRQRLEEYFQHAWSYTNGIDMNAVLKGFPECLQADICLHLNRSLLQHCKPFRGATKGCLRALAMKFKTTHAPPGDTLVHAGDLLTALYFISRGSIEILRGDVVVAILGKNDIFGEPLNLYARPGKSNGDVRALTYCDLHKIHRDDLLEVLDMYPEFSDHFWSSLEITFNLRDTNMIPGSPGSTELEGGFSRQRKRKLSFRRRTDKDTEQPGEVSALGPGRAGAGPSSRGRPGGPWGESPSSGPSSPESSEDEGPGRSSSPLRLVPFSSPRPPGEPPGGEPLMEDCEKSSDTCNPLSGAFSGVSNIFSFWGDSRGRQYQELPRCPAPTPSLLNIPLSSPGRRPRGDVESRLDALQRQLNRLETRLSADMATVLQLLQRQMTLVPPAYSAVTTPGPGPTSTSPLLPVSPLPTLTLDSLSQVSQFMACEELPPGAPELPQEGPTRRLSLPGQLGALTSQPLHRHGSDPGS

The compound `CC(C)(CO)n1cc2cc(-c3sc(C(=O)N4CCC[C@@H](N)C4)cc3-c3ccc(C#N)c(F)c3)ccc2n1` [Hydrochloride of compound 87] came in with an IC50 at human LSD1 of 0.0248 µM. For the same compound, in data set [1], the clearance turned out to be 25.7 mL/min/kg, the half-life is 1.54 h, the Vd came out at 3.13 L/kg and the bioavailability stood at 41.1%. Further, in data set [1], the AUC(0-t) was determined as 1.01 µM·h and the Cmax was determined as 267 nM. This compound came in with a half-maximal inhibitory concentration (IC50) in data set [2] of 13.4 µM.

`CN[C@@H]1CCCN(C(=O)c2cc(-c3ccc(C#N)c(F)c3)c(-c3cc4nnn(CC(C)(C)O)c4c(F)c3F)s2)C1` [Hydrochloride of compound 98]: half-maximal inhibition against human LSD1 (IC50) was put at 0.0126 µM. Besides, in data set [1], the clearance was 45.3 mL/min/kg, the half-life was 2.28 h, the Vd worked out at 6.94 L/kg and the bioavailability was found to be 58.6%. Besides, in data set [1], the AUC(0-t) stood at 0.708 µM·h and the Cmax was found to be 160 nM. In data set [2], this compound displayed an IC50 of 18.6 µM.

By IC50 is commonly meant the concentration that gives 50% inhibition. Low values mean higher potency, high ones lower potency. The term bioavailability denotes the share of a dose that reaches the circulation, judged against a reference dose that is usually intravenous.

For the origin of these results see patent US20240199571A1, “THIOPHENE COMPOUND AND APPLICATION THEREOF” (MEDSHINE DISCOVERY INC., priority 2021, published 2024).
